Test systems include RXF 393 renal; TK-10 renal; SF-539 CNS; KM12 colon; MALME-3M melanoma; OVCAR-8 ovarian; SK-OV-3 ovarian; MOLT-4 leukemia; HT29 colon; MCF7 breast.
What all share (assay): DTP human tumour cell line panel, 48 h

Results on 8 molecules are retold here after PubChem BioAssay (NCI).

“And” between values parts separate entries of the source, which are not always exact repeats. Equal entries are not always repeated.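 Cultured in 96-well plates, cells were exposed to test compound for 48 hours across five concentrations. GI50 is the concentration that inhibits growth by half. TGI is the concentration that stops growth completely.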 Where only a bound is given, the exact number is not on record here.

Regarding `Cc1cc(NCCN(C(C)C)C(C)C)nc(/N=C(\N)Nc2ccc(Cl)c(C(F)(F)F)c2)n1`, the GI50 is 0.249 µM in the experiment on RXF 393 renal; 0.297 µM with TK-10 renal; 0.179 µM in the experiment with SF-539 CNS; 0.674 µM in the experiment with KM12 colon; 0.183 µM in the experiment with MALME-3M melanoma; 0.275 µM in the experiment with OVCAR-8 ovarian. In addition, the GI50 in the experiment on SK-OV-3 ovarian is 1.26 µM; with MOLT-4 leukemia, 0.383 µM; in the experiment with HT29 colon, 0.267 µM; in the experiment with MCF7 breast, 0.269 µM. Further, the total growth inhibition concentration (TGI) worked out at 0.75 µM with RXF 393 renal; 1.04 µM in the experiment on TK-10 renal; 0.329 µM with SF-539 CNS; 1.79 µM in the experiment with KM12 colon; 0.403 µM with MALME-3M melanoma; 0.812 µM in the experiment with OVCAR-8 ovarian. In addition, the total growth inhibition concentration (TGI) in the experiment with SK-OV-3 ovarian was found to be 2.55 µM; in the experiment on MOLT-4 leukemia it was 1.47 µM; with HT29 colon it was 0.919 µM; in the experiment on MCF7 breast, 0.851 µM.
As to `N#CCCN(CCCN(CCCN(C(=O)Nc1ccccc1)c1ccccc1)C(=O)Nc1ccccc1)C(=O)Nc1ccccc1`, the GI50 in the experiment with RXF 393 renal is over 100 µM; in the experiment with TK-10 renal it was over 100 µM; with SF-539 CNS it was over 100 µM; with KM12 colon it was 18.7 µM; with MALME-3M melanoma, 16 µM; in the experiment on OVCAR-8 ovarian it was 85.2 µM. Further, the results for the GI50 with SK-OV-3 ovarian, in the experiment on MOLT-4 leukemia and with MCF7 breast were over 100 µM, 3.95 µM and 11.9 µM, respectively. Besides, the TGI was over 100 µM in the experiment on RXF 393 renal; over 100 µM in the experiment on TK-10 renal; over 100 µM with SF-539 CNS; over 100 µM in the experiment with KM12 colon; > 8.75 µM and 67.2 µM in the experiment with MALME-3M melanoma; over 100 µM with OVCAR-8 ovarian. Moreover, the TGI was over 100 µM in the experiment with SK-OV-3 ovarian, over 100 µM in the experiment on MOLT-4 leukemia, over 8.75 µM in the experiment on HT29 colon and over 100 µM in the experiment with MCF7 breast.
On to `CC(=O)C(=Cc1ccc(C=C(C(C)=O)C(C)=O)cc1)C(C)=O`, for which the concentration for total growth inhibition (TGI) in the experiment with RXF 393 renal is 3.51 µM; in the experiment on TK-10 renal it was 5.31 µM; in the experiment with SF-539 CNS, 4.03 µM; in the experiment with KM12 colon, 6.18 µM; with MALME-3M melanoma, 4.84 µM; with OVCAR-8 ovarian, 14.6 µM. The TGI in the experiment on SK-OV-3 ovarian is 17 µM; in the experiment on MOLT-4 leukemia, 3.6 µM; in the experiment with HT29 colon, 3.05 µM; in the experiment on MCF7 breast it was 2.36 µM.
In the case of `C[C@]12CCc3sc(NCCc4ccccc4)nc3C1=CC[C@@H]1[C@@H]2CC[C@]2(C)C(=O)CC[C@@H]12`, the GI50 with RXF 393 renal is 1.73 µM; in the experiment with TK-10 renal it was 4.15 µM; with SF-539 CNS it was 1.69 µM; with KM12 colon it was 3.6 µM; with MALME-3M melanoma it was 2.18 µM; in the experiment with OVCAR-8 ovarian, 2.77 µM. The GI50 in the experiment on SK-OV-3 ovarian is over 100 µM; in the experiment on MOLT-4 leukemia, 2.58 µM; with HT29 colon it was 2.2 µM; in the experiment with MCF7 breast it was 2.68 µM. For the same molecule, the concentration for total growth inhibition (TGI) is 4.49 µM with RXF 393 renal; over 100 µM in the experiment with TK-10 renal; 3.62 µM with SF-539 CNS; over 100 µM in the experiment with KM12 colon; 6.82 µM in the experiment with MALME-3M melanoma; over 100 µM in the experiment on OVCAR-8 ovarian. The total growth inhibition concentration (TGI) in the experiment with SK-OV-3 ovarian was over 100 µM; in the experiment with MOLT-4 leukemia it was over 100 µM; in the experiment with HT29 colon, 8.11 µM; in the experiment with MCF7 breast, over 100 µM.
Consider `Cc1cc(O)c(C2=NN(c3ccc(S(N)(=O)=O)cc3)C(c3ccccc3Cl)C2)cc1Cl` (configuration not stated), for which the GI50 with RXF 393 renal is 3.09 µM; in the experiment with TK-10 renal, 2.64 µM; in the experiment on SF-539 CNS, 1.79 µM; in the experiment with MALME-3M melanoma it was 2.62 µM; in the experiment on OVCAR-8 ovarian, 2.94 µM; with SK-OV-3 ovarian it was 3.63 µM. The GI50 with MOLT-4 leukemia is 4.04 µM; with HT29 colon, 1.92 µM; in the experiment with MCF7 breast, 1.75 µM. Moreover, the TGI in the experiment with RXF 393 renal is 8.22 µM; in the experiment on TK-10 renal, 5.86 µM; in the experiment on SF-539 CNS it was 3.25 µM; with MALME-3M melanoma it was 6.46 µM; with OVCAR-8 ovarian it was 11.2 µM; in the experiment with SK-OV-3 ovarian it was 10.4 µM. Besides, the results for the TGI in the experiment with MOLT-4 leukemia, with HT29 colon and in the experiment on MCF7 breast were over 100 µM, 3.63 µM and 3.33 µM, respectively.
Consider `O=C(Nc1cccc(-n2cc(-c3ccncc3)c(-c3cc(O)cc(Cl)c3)n2)c1)Nc1ccc(Cl)c(C(F)(F)F)c1`, for which the GI50 was 1.42 µM with RXF 393 renal; 1.97 µM in the experiment on SF-539 CNS; 2.59 µM in the experiment on KM12 colon; 2.37 µM in the experiment with MALME-3M melanoma; 2.15 µM with OVCAR-8 ovarian; 4.11 µM in the experiment on SK-OV-3 ovarian. Further, the GI50 in the experiment with MOLT-4 leukemia is 1.99 µM; with HT29 colon it was 2.12 µM; with MCF7 breast it was 2.63 µM. Besides, the total growth inhibition concentration (TGI) in the experiment on RXF 393 renal was 3.88 µM; in the experiment on SF-539 CNS, 4.49 µM; with KM12 colon, 9.86 µM; with MALME-3M melanoma it was 6.25 µM; with OVCAR-8 ovarian it was 5.55 µM; in the experiment with SK-OV-3 ovarian, 30.7 µM. Besides, the TGI in the experiment on MOLT-4 leukemia is 5.81 µM; with HT29 colon, 4.58 µM; in the experiment on MCF7 breast it was 8.54 µM.
For `O=C(Nc1ccncc1)C(=O)c1cn(Cc2ccc(Cl)cc2)c2ccccc12`, the GI50 was 0.0302 µM in the experiment on RXF 393 renal; 0.457 µM with TK-10 renal; 0.0278 µM in the experiment with SF-539 CNS; 0.0384 µM with KM12 colon; 0.0414 µM in the experiment on MALME-3M melanoma; 0.0549 µM in the experiment on OVCAR-8 ovarian. Moreover, the GI50 in the experiment with SK-OV-3 ovarian is 0.199 µM; with MOLT-4 leukemia, 0.064 µM; with HT29 colon it was 0.0363 µM; in the experiment with MCF7 breast, 0.0363 µM. For the same molecule, the concentration for total growth inhibition (TGI) in the experiment on TK-10 renal was over 100 µM; in the experiment on SF-539 CNS it was 0.0788 µM; with KM12 colon it was over 100 µM; in the experiment with MALME-3M melanoma, over 100 µM; in the experiment with OVCAR-8 ovarian, over 100 µM; in the experiment with SK-OV-3 ovarian, over 100 µM. Further, the TGI with MOLT-4 leukemia, in the experiment on HT29 colon and with MCF7 breast was over 100 µM in each case.
For `c1csc(-c2cn3nc(-c4c[nH]c5ccccc45)sc3n2)c1`, the GI50 in the experiment with RXF 393 renal is 2.05 µM; in the experiment on TK-10 renal it was 5.21 µM; in the experiment on SF-539 CNS, 1.49 µM; in the experiment on KM12 colon it was 0.498 µM; in the experiment with MALME-3M melanoma, 10.4 µM; with OVCAR-8 ovarian it was 2.72 µM. Further, the values for the GI50 in the experiment on SK-OV-3 ovarian, in the experiment on HT29 colon and in the experiment with MCF7 breast were 2.8 µM, 0.413 µM and 1.17 µM, respectively. Also, the total growth inhibition concentration (TGI) in the experiment on RXF 393 renal was 50 µM; in the experiment on TK-10 renal, 33.5 µM; in the experiment on SF-539 CNS, 4.6 µM; in the experiment with KM12 colon, 10.5 µM; in the experiment with MALME-3M melanoma, 36.9 µM; in the experiment with OVCAR-8 ovarian, over 100 µM. For the same molecule, the concentration for total growth inhibition (TGI) came out at 82.7 µM in the experiment on SK-OV-3 ovarian, 10.2 µM in the experiment with HT29 colon and 20.2 µM in the experiment with MCF7 breast.
